Usually IC50 stands for the concentration at which inhibition is half-maximal. A lower IC50 goes with greater potency. The term Ki denotes the dissociation constant of the complex between target and ligand, obtained from inhibition or displacement. One may read the inhibition as the drop in the measured response relative to a control, in per cent.

Structures can show the parent of a compound that is named as a salt.

One experiment deals with T1, Transporter, GABA (Rattus norvegicus, UniProt P23978).
T1 construct: tissue Eurofins Panlabs 226400; host or cells: rat brain membranes (own knowledge of the vendor's assay and of the cited Shank et al. 1990 method)
In words: GABA transporter radioligand binding assay (Cat # 226400). The protocol:
The activity of compound Compound 5 was evaluated in Radioligand Binding assays. Methods employed herein have been adapted from the scientific literature to maximize reliability and reproducibility. Reference standards were run as an integral part of each assay to ensure the validity of the results obtained. Where presented, IC50 values were determined by a non-linear, least squares regression analysis using MathIQ™ (ID Business Solutions Ltd., UK). Where inhibition constants (K) are presented, the Ki values were calculated using the equation of Cheng and Prusoff (Cheng, Y., Prusoff, W. H., Biochem. Pharmacol. 22:3099-3108, 1973) using the observed IC50 of the tested compound, the concentration of radioligand employed in the assay, and the historical values for the KD of the ligand (obtained experimentally at Eurofins Panlabs, Inc.). Where presented, the Hill coefficient (nH), defining the slope of the competitive binding curve, was calculated using MathIQ™. […] Where IC50, Ki and/or nH data are presented without Standard Error of the Mean (SEM), data are insufficient to be quantitative.
Biochemical assay results are presented as the percent inhibition of specific binding or activity. All other results are expressed in terms of the quantitation method of that assay. For primary assays, only the lowest concentration with a significant response, judged by the criteria of the assay, is shown in this summary. […] Unless otherwise requested, primary screening in duplicate with quantitative data (e.g., IC50±SEM, Ki ±SEM and nH) are shown where applicable for individual requested assays.
J Neurochem. 54:2007-2015.

Experiment [1] has as its system Mecp2^R306C and Shank3B^+/− mice. Briefly: Chronic isoguvacine treatment from P0-P42 of Mecp2 and Shank3 germline mutant mice. The experiment is classed as in vivo, mouse. As for the experimental part: FIGS. 21A-21O show chronic administration of isoguvacine improves tactile over-reactivity, region-selective cortical abnormalities, and some ASD-related behaviors in Mecp2 and Shank3 mutant mice. FIG. 21A: Representative images of P21 control and Mecp2^C/y mutant mice treated daily from P0-21 with either saline or isoguvacine (2 mg/kg). FIG. 21B: Average phenotypic score of P21 Shank3B^+/− or Mecp2^C/y mutant mice and control littermates treated daily with either saline or isoguvacine (2 mg/kg). One-way ANOVA with post-hoc Tukey's test, *, p<0.05. FIG. 21C: Average bodyweight of P21 Shank3B^+/− or Mecp2^C/y mutant mice and control littermates treated daily with either saline or isoguvacine (2 mg/kg). One-way ANOVA with post-hoc Tukey's test, *, p<0.05. […] One-way ANOVA with post-hoc Tukey's test, *, p<0.05. FIG. 21E: Discrimination index for textured NORT. One-way ANOVA with post-hoc Tukey's test, *, p<0.05. FIG. 21F: Representative activity traces in the OF test. FIG. 21G: Percent time spent in the center of the OF chamber. One-way ANOVA with post-hoc Tukey's test, *, p<0.05. FIG. 21H: Percent time spent in the open arms of the EPM. One-way ANOVA with post-hoc Tukey's test, *, p<0.05. FIGS. 21I-21J: Preference index for the percentage of time spent investigating the novel mouse in the “Sociability” (FIG. 21I) or “Social Novelty Recognition Preference” (FIG. 21J) portion of the 3-chamber social interaction test. One-way ANOVA with post-hoc Tukey's test, *, p<0.05. FIG. 21K: Representative IHC images of transverse S1 brain sections, showing PV immunoreactivity in Shank3B^+/− or Mecp2^C/y mutant mice and control littermates treated daily from P1-42 with either saline or isoguvacine (2 mg/kg). FIGS. 21L-21M: Quantification of the number of PV-positive (PV^+) neurons in S1 (FIG. 21L) and V1 (FIG. 21M). One-way ANOVA with post-hoc Tukey's test, *, p<0.05. FIG. 21N: Representative traces showing ePSCS (−70 my hold) and iPSCs (0 mV hold) from S1 slices from Shank3B^+/− or Mecp2^C/y mutant mice and control littermates treated daily from P1-42 with either saline or isoguvacine (2 mg/kg). FIG. 21O: Quantification of excitatory/inhibitory (E/I) ratio in S1 or V1 slices from control and mutant mice. One-way ANOVA with post-hoc Tukey's test, *, p<0.05.
Therefore, it was tested whether chronic treatment of Mecp2 and Shank3 germline mutant mice with isoguvacine beginning shortly after birth (i.p. administration, 2 mg/kg per daily, from P0-P42) improves any of the ASD-related phenotypes commonly observed in adulthood. […] Taken together, treatment with a peripherally restricted GABAA receptor agonist during early postnatal development may provide an effective therapeutic strategy for improving tactile over-reactivity and a subset of other key features of ASD, including anxiety, without causing sedation and other undesirable effects of activating brain GABAA receptors during development.

As for `NC1C=C(C(=O)O)CCC1` (stereo not shown) [Compound 5, 3-aminocyclohex-1-enecarboxylic acid hydrochloride], at Transporter, GABA, the “GABA transporter inhibition (in words)” value is recorded as “potent GABA transporter inhibitor”, the IC50 was 28.1 µM, the affinity corresponds to a Ki of 27.5 µM and the inhibition at 30 µM was found to be 52%. Besides, on Transporter, GABA (Conc. 0.1 μM), the inhibition at 0.1 µM is -10%. For the same compound, the inhibition at 0.3 µM at Transporter, GABA (Conc. 0.3 μM) was determined as 3%. In addition, on Transporter, GABA (Conc. 1 μM), the inhibition at 1 µM was -1%. The inhibition at 3 µM on Transporter, GABA (Conc. 3 μM) is 2%. The inhibition at 10 µM on Transporter, GABA (Conc. 10 μM) turned out to be 19%. For the same compound, the inhibition at 100 µM at Transporter, GABA (Conc. 100 μM) amounted to 86%. At Transporter, GABA (Conc. 300 μM), the inhibition at 300 µM is 97%. For the same compound, on Transporter, GABA (Conc. 1 mM), the inhibition at 1000 µM was 104%. Moreover, the “nH (Hill coefficient)” value at Transporter, GABA (slope of competitive binding curve) came out at 1.47.

On to `O=C(O)C1=CCNCC1` [Isoguvacine, isoguvacine], for which the “tactile over-reactivity, anxiety-like behaviors, social impairments, PV+ neuron abnormalities in S1 and BLA, E/I ratios in S1” value in experiment [1] (8-week-old mice, 2 mg/kg i.p. daily P0-P42) is listed as “significantly improved multiple ASD-associated behavioral phenotypes”. For the same compound, the motor impairments entry in experiment [1] (Mecp2 mutants, chronic 2 mg/kg) is “not improved”. In addition, the “overall body appearance, or phenotypic score” value in experiment [1] (P21, 2 mg/kg i.p. daily, vs saline-treated) is “substantial improvement”. For the same compound, the “bodyweight of mutant mice” value in experiment [1] (P21, Shank3B and Mecp2 mutant mice, 2 mg/kg daily) is “increased bodyweight and were not different in weight from control mice”. Moreover, in experiment [1] (Shank3 mutants, chronic 2 mg/kg), the overgrooming phenotype result was “nor was the overgrooming phenotype rescued”. For the same compound, the “textured discrimination deficits, acoustic PPI performance, memory impairments, PV+ neuron abnormalities and E/I ratios in V1” value in experiment [1] (Shank3 or Mecp2 mutants, 2 mg/kg i.p. daily P0-P42) is “did not improve”.
